Assay results published in patent US6362337B1, “Substituted phenyluracils” (Bayer Aktiengesellschaft, priority 1997, dated 2002).

Columns and labels:
weeds [1] = experiment: Post-emergence test, action against weeds; format: in vivo; conditions: test plants 5-15 cm sprayed, rated after three weeks vs untreated control
Description: (§1) To produce a suitable preparation of active compound, 1 part by weight of active compound is mixed with the stated amount of solvent, the stated amount of emulsifier is added and the concentrate is diluted with water to the desired concentration.
Test plants having a height of 5-15 cm are sprayed with the preparation of active compound such that the particular amounts of active compound desired are applied per unit area. The concentration of the spray liquor is chosen so that the particular amounts of active compound desired are applied in 1000 l of water/ha.
(§2) After three weeks, the degree of damage to the plants is rated in % damage in comparison with the development of the untreated control.
(§3) 0%=no effect (like untreated control)

weeds [2] = experiment: Pre-emergence test, action against weeds; format: in vivo; conditions: soil sprayed about 24 hours after sowing, rated after three weeks vs untreated control
Description: as §1
Seeds of the test plants are sown in normal soil. After about 24 hours, the soil is sprayed with the preparation of active compound such that the particular amounts of active compound desired are applied per unit area. The concentration of the spray liquor is chosen so that the particular amounts of active compound desired are applied in 1000 l of water/ha.
as §2, §3

Compound	melting point	action against weeds (degree of damage to the plants) (weeds [1])	action against weeds (degree of damage to the plants) (weeds [2])
CCOC(=O)c1cc(-n2c(=O)cc(C(F)(F)F)n(C)c2=O)ccc1OC(C)=O [Example 2, 3-(4-acetoxy-3-ethoxycarbonyl-phenyl)-1-methyl-6-trifluoromethyl-1,2,3,4-tetrahydro-1H-pyrimidine-2,4-dione]	148 °C	very strong action against weeds	very strong action against weeds
CCOC(=O)c1cc(-n2c(=O)cc(C(F)(F)F)[nH]c2=O)ccc1OC(C)=O [Example 1, 3-(4-acetoxy-3-ethoxycarbonyl-phenyl)-6-trifluoromethyl-1,2,3,4-tetrahydro-1H-pyrimidine-2,4-dione]	155 °C		
CCOC(=O)c1cc(-n2c(=O)cc(C(F)(F)F)n(N)c2=O)ccc1OC(C)=O [Example 3, 1-amino-3-(4-acetoxy-3-ethoxycarbonyl-phenyl)-6-trifluoromethyl-1,2,3,4-tetrahydro-1H-pyrimidine-2,4-dione]	190 °C	very strong action against weeds	very strong action against weeds
